This is an account of results in ChEMBL document CHEMBL5113378, “Role of basic aminoalkyl chains in the lead optimization of Indoloquinoline alkaloids” (Eur J Med Chem, 2022).

One series concerns SK-HEP1. Put plainly: Antiproliferative activity against human SK-HEP1 cells assessed as cell growth inhibition. Type of series: functional, cell-based.
Series [1] concerns Plasmodium falciparum. Put plainly: Antimalarial activity against Plasmodium falciparum NF54 assessed as parasite growth inhibition. The format is functional, organism-based.
Series [2] can be described thus: Selectivity index, ratio of IC50 for rat L6 cells to IC50 for Plasmodium falciparum NF54. The format is toxicity. To be noted: read-out: Ratio IC50.
A short description of series [3]: Cytotoxicity against rat L6 cells assessed as cell growth inhibition. Type of series: toxicity, cell-based.
For series [4], the system named is Hemozoin. Put plainly: Inhibition of beta-hematin formation.
Series [5] has as its system Plasmodium falciparum. In words: Antimalarial activity against Plasmodium falciparum K1 assessed as parasite growth inhibition. Type of series: functional, organism-based.
For series [6], the target named is Telomerase reverse transcriptase (Homo sapiens, UniProt O14746). Put plainly: Inhibition of telomerase derived from human A2780 cell extract by TRAP assay. Type of series: cell-free.
Telomerase reverse transcriptase, sequence (O14746 whole entry): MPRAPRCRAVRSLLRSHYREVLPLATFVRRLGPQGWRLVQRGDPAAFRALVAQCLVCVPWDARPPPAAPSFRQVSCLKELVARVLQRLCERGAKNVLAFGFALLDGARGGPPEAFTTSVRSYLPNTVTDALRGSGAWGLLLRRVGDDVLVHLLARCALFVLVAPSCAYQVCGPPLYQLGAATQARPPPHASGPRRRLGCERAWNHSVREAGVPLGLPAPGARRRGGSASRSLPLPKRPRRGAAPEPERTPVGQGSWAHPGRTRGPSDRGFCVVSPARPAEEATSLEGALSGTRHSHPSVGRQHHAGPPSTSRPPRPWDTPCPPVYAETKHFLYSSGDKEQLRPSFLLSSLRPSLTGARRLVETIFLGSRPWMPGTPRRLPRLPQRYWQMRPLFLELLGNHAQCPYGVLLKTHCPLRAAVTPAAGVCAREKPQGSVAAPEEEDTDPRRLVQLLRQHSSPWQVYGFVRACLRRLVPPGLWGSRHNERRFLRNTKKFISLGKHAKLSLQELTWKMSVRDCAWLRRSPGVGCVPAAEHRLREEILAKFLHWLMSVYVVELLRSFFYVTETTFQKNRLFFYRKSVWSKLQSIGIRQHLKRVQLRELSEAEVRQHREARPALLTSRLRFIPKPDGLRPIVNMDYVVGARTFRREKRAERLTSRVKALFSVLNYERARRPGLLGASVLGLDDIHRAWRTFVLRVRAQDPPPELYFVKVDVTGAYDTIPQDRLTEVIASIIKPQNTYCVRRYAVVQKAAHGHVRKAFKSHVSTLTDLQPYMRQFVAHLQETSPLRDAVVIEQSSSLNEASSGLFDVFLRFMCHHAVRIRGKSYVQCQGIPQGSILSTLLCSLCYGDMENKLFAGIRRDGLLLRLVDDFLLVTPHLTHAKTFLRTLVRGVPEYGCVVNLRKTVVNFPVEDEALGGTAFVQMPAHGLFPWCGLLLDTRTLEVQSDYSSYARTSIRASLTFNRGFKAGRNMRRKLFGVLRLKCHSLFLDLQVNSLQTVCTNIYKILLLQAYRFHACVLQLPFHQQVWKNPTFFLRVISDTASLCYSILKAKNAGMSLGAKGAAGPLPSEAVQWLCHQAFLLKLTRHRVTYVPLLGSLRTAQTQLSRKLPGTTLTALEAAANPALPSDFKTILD
For series [7], the system named is Plasmodium berghei. Put plainly: Antimalarial activity against Plasmodium berghei ANKA infected in BALB/c mouse assessed as parasite growth inhibition at 50 mg/kg, po administered for 4 consecutive days measured for 7 to 13 days by geimsa dye based microscopy relative to control. The format is functional. Conditions: time 7-13 day. Further details: scale not given: the % may be the effect or the level left.

Series [8] relates to Plasmodium falciparum. In words: Antimalarial activity against Plasmodium falciparum 3D7 assessed as parasite growth inhibition incubated for 48 hrs by SYBR green dye based fluorescence assay. Type of series: functional, organism-based. To be noted: 3D7, 48 h.
In series [9] the test system is Plasmodium falciparum. In words: Antimalarial activity against Plasmodium falciparum Dd2 assessed as parasite growth inhibition incubated for 48 hrs by SYBR green dye based fluorescence assay. The format is functional, organism-based. Conditions: Dd2, 48 h.
Series [10] has as its system Plasmodium falciparum. In words: Antimalarial activity against Plasmodium falciparum INDO assessed as parasite growth inhibition incubated for 48 hrs by SYBR green dye based fluorescence assay. Type of series: functional, organism-based.
A short description of series [11]: Selectivity index, ratio of CC50 for human Huh-7 cells to IC50 for Plasmodium falciparum 3D7. Type of series: toxicity. Conditions: read-out: Ratio CC50/IC50.
Series [12] deals with Hemozoin. In words: Inhibition of detergent-mediated beta-hematin formation incubated for 6 hrs by multiwell plate reader analysis.
Series [13] in a line: Selectivity index, ratio of IC50 for rat L6 cells to IC50 for Plasmodium falciparum K1. Type of series: toxicity. Conditions: read-out: Ratio IC50.
The nature of series [14]: Selectivity index, ratio of IC50 for rat L6 cells to IC50 for erythrocytic Plasmodium falciparum NF54. To be noted: read-out: Ratio IC50. Type of series: toxicity.
The test system of series [15] is Hemozoin. Put plainly: Inhibition of detergent-mediated beta-hematin formation incubated for 5 to 6 hrs by absorbance based assay.
For series [16], the system named is A2780. In words: Cytotoxicity against human A2780 cells assessed as cell growth inhibition. The format is functional, cell-based.
For series [17], the system named is A2780. In words: Cytotoxicity against drug resistant human A2780 cells assessed as cell growth inhibition. The format is functional, cell-based.
Series [18] deals with CH1. Put plainly: Cytotoxicity against human CH1 cells assessed as cell growth inhibition. The format is functional, cell-based.
Series [19] has as its system CH1. In words: Cytotoxicity against drug resistant human CH1 cells assessed as cell growth inhibition. Type of series: functional, cell-based.
The next series deals with HL-60. In words: Antiproliferative activity against human HL-60 cells assessed as cell growth inhibition. The format is functional.
A further series deals with K562. Put plainly: Antiproliferative activity against human K562 cells assessed as cell growth inhibition. Type of series: functional.
The next series has as its system MOLT-4. In words: Antiproliferative activity against human MOLT-4 cells assessed as cell growth inhibition. Type of series: functional.
In the next series the test system is RPMI-8226. In words: Antiproliferative activity against human RPMI-8226 cells assessed as cell growth inhibition. Type of series: functional.
The next series concerns SR. In words: Antiproliferative activity against human SR cells assessed as cell growth inhibition. Type of series: functional.
A further series has as its system A549. In words: Antiproliferative activity against human A549 cells assessed as cell growth inhibition. Type of series: functional, cell-based.
The subject of the next series is MCF7. In words: Antiproliferative activity against human MCF7 cells assessed as cell growth inhibition. Type of series: functional, cell-based.
The next series has as its system HeLa. In words: Antiproliferative activity against human HeLa cells assessed as cell growth inhibition. Type of series: functional, cell-based.
Another series concerns DU-145. In words: Antiproliferative activity against human DU-145 cells assessed as cell growth inhibition. The format is functional.
Series [20] has as its system Plasmodium berghei. Put plainly: Antimalarial activity against Plasmodium berghei NK65 infected in Webster Swiss mouse assessed as parasite growth inhibition at 50 mg/kg/day, po for 5 days by geimsa dye based microscopy relative to control. Type of series: functional. Further details: scale not given: the % may be the effect or the level left. Conditions: time 5 day.

The target of series [21] is DNA topoisomerase 2-beta (Homo sapiens) (UniProt Q02880). In words: Inhibition of human topoisomerase-2-beta.
DNA topoisomerase 2-beta (Homo sapiens), sequence (Q02880 whole entry): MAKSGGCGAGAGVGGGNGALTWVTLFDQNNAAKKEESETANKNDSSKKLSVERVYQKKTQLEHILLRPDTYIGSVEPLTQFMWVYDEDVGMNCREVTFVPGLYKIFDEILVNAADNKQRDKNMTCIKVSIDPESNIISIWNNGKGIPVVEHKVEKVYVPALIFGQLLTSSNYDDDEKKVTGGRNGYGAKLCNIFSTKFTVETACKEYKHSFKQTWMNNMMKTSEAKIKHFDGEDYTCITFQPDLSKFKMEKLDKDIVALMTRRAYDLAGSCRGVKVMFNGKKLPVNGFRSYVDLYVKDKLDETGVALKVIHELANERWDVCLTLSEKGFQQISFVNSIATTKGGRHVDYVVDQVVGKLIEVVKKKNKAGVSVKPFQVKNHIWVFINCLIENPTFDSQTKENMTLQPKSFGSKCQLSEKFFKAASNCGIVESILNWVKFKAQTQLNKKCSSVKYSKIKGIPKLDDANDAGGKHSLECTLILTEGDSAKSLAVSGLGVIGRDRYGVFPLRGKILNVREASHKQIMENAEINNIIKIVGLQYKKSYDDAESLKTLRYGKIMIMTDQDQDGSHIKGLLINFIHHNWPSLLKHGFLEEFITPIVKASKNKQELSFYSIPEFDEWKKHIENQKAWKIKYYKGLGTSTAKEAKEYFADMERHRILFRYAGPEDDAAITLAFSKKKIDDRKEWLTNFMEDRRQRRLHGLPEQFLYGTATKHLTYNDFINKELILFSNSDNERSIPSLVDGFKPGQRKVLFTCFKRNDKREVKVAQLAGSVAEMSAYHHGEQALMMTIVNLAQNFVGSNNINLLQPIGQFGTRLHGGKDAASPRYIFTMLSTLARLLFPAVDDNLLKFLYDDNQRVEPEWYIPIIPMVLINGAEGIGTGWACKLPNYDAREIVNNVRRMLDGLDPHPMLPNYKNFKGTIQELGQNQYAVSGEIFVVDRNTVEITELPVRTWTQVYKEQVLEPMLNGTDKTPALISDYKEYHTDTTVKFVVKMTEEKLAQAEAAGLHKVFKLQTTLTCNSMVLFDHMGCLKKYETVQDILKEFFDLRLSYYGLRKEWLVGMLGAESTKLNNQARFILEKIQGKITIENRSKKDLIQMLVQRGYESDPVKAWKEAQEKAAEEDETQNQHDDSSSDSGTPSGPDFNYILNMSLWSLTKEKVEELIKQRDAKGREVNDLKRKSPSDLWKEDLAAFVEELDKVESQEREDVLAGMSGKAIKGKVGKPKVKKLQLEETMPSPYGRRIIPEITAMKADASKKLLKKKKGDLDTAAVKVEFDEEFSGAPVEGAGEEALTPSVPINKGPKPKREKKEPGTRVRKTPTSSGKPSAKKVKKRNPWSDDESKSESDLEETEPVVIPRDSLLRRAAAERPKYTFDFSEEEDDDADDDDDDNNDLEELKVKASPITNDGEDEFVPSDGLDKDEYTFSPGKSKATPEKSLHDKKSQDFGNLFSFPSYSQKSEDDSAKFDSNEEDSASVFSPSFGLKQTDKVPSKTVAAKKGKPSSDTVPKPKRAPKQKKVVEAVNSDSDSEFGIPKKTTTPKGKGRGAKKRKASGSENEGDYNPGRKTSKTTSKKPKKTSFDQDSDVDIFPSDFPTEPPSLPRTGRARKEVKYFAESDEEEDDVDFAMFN
Series [22] deals with Plasmodium falciparum. Put plainly: Antimalarial activity against chloroquine/mefloquine resistant Plasmodium falciparum clinical isolates assessed as parasite growth inhibition incubated for 24 hrs by microtechnique method. Type of series: functional, organism-based.
In another series the test system is P388. Put plainly: Antiproliferative activity against mouse P388 cells assessed as cell growth inhibition by measuring [3H]TdR uptake incubated for 3 days. Type of series: functional, cell-based.
The nature of series [23]: Antiproliferative activity against […] LLTC cells assessed as cell growth inhibition incubated for 4 days by sulphorhodamine assay. To be noted: LLTC cell line, 96 h. Type of series: functional, cell-based.
A further series deals with Jurkat. Put plainly: Antiproliferative activity against human Jurkat cells assessed as cell growth inhibition incubated for 4 days by sulphorhodamine assay. Type of series: functional, cell-based. Conditions: 96 h.
Series [24] can be described thus: Selectivity index, ratio of IC50 for rat L6 cells to IC50 for erythrocytic Plasmodium falciparum K1. Type of series: toxicity. To be noted: read-out: Ratio IC50.

Molecules are shown by their SMILES.

By IC50 is commonly meant the midpoint of a concentration-inhibition curve. `c1ccc2c(c1)nc(NCCCNCCCNc1nc3ccccc3c3[nH]c4ccccc4c13)c1c3ccccc3[nH]c21`: the half-inhibitory concentration (IC50) with SK-HEP1 turned out to be 0.09 µM.
As for `Cn1c2nc3ccccc3c-2c(NCC(C)(C)CNC(=S)Nc2ccccc2)c2cc(Cl)ccc21`, the concentration for half-maximal inhibition (IC50) in the series with Plasmodium falciparum [1] amounted to 0.019 µM; in series [3], 3.27 µM; in the series on Hemozoin [4], 34.1 µM. In addition, the selectivity ratio in series [2] was found to be 164.
Consider `COc1cc2c(cc1CN1CCN(C)CC1)[nH]c1c3ccc(Cl)cc3ncc21`, for which the IC50 with Plasmodium falciparum [5] came to 0.0024 µM.
In turn, `c1cc2nc3c(cc2cc1CCCN1CCCCC1)[nH]c1ccc(CCCN2CCCCC2)cc13` registered a 50% inhibitory concentration (IC50) in series [6] of 11.8 µM.
`O=C(NCCN1CCCCC1)c1c2cc(Br)ccc2nc2c1[nH]c1ccccc12`: the Activity in the series with Plasmodium berghei [7] is on record as 27%. Besides, the half-maximal inhibitory concentration (IC50) with Plasmodium falciparum [8] was found to be 1.3 µM; in the series with Plasmodium falciparum [9], 6.3 µM; with Plasmodium falciparum [10] it was 5 µM; in the series on Hemozoin [12] it was 840 µM. The selectivity ratio in series [11] was 46.9.
As for `COC(=O)c1ccc2nc3n(C)c4ccccc4c(NCCCN)c-3c2c1`, the selectivity ratio in [13] is 7.2. The compound also returned a half-maximal inhibitory concentration (IC50) in the series with Hemozoin [4] of 48.9 µM.
For the compound `C[C@H]1[C@H](OC(=O)CCC(=O)NCCCNc2c3ccccc3nc3c2[nH]c2ccccc23)O[C@@H]2O[C@@]3(C)CC[C@H]4[C@H](C)CC[C@@H]1[C@@]24OO3`, the selectivity ratio in series [14] was 1720. The compound also gave an IC50 in the series on Hemozoin [15] of 17.1 µM.
In the case of `CN(C)CCc1ccc2nc3c4ccccc4n(CCN(C)C)c3cc2c1`, the IC50 in the series on A2780 [16] was determined as 12.5 µM; in the series with A2780 [17], 10.5 µM; in the series on CH1 [18] it was 8.4 µM; in the series on CH1 [19] it was 12.5 µM.
Broadly, the GI50 is the concentration that inhibits growth by half. Take `COc1c2c3ccccc3nc-2n(C)c2ccccc12`: the GI50 in the series on HL-60 came to 9.88 µM; with K562 it was 11.5 µM; with MOLT-4, 4.7 µM; in the series with RPMI-8226 it was 6.04 µM; with SR, 7.1 µM.
Turning to `Cn1c2nc3ccccc3c-2c(NCC(C)(C)CNC(=S)Nc2ccccc2)c2ccccc21`, the concentration for half-maximal inhibition (IC50) with Plasmodium falciparum [1] was 0.057 µM; in [3], 7.25 µM; in the series on Hemozoin [4], 19.9 µM. The selectivity ratio in [2] stood at 126.
Regarding `Cn1c2ccccc2c2c(C(=O)NC3CCCCC3)c3cc(Cl)ccc3nc21`, the 50% growth inhibitory concentration (GI50) was 7.2 µM in the series with A549, 9.7 µM in the series on MCF7, 10.3 µM in the series with HeLa and 20.7 µM with DU-145.
In the case of `C[n+]1c2ccccc2c(NC2CCNCC2)c2[nH]c3ccccc3c21`, the Activity with Plasmodium berghei [20] is given as 55%.
For the compound `CCCCNc1c2ccccc2[n+](C)c2c1[nH]c1ccccc12`, the values for the half-maximal inhibitory concentration (IC50) in the series on A549 and with MCF7 were 0.47 µM and 5.9 µM, respectively. Further, the MIC in [21] came to 0.5 µM.
Consider `COc1cc2c(cc1CN(C)CCCN(C)C)[nH]c1c3ccc(Cl)cc3ncc21`, for which the IC50 in the series on Plasmodium falciparum [22] turned out to be 0.000192 µM.
For `COc1ccc(Nc2c3c4ccccc4nc-3n(C)c3ccccc23)cc1`, the GI50 in the series with HL-60 turned out to be 0.11 µM; in the series with K562, 0.42 µM; in the series on MOLT-4, 0.09 µM; with RPMI-8226, 0.14 µM; with SR, 0.19 µM.
Consider `Cc1cccc2c1c1nc3c(C(=O)NCCN(C)C)cccc3cc1n2C`, for which the IC50 in the series on P388 is 0.02 µM; in [23], 0.018 µM; in the series on Jurkat it was 0.055 µM.
In the case of `C[C@H]1[C@H](OC(=O)CCC(=O)NCCCNc2nc3ccccc3c3[nH]c4ccccc4c23)O[C@@H]2O[C@@]3(C)CC[C@H]4[C@H](C)CC[C@@H]1[C@@]24OO3`, the selectivity ratio in series [24] came to 3280. Moreover, the 50% inhibitory concentration (IC50) in the series on Hemozoin [15] came out at 15.7 µM.
For the compound `C=CCn1c2ccccc2c2c(C(=O)NC3CCCCC3)c3cc(F)ccc3nc21`, the GI50 in the series with A549 turned out to be 7.7 µM; in the series on MCF7, 11.9 µM; in the series on HeLa, 9.9 µM; in the series on DU-145 it was 9.4 µM.
Regarding `c1cc2nc3c(cc2cc1CCCN1CCCC1)[nH]c1ccc(CCCN2CCCC2)cc13`, in [6], the half-maximal inhibitory concentration (IC50) was 6.3 µM.
On to `Cn1c2nc3ccccc3c-2c(NCC(C)(C)CNC(=O)Nc2ccccc2)c2ccccc21`, for which the figures for the IC50 (in the series with Plasmodium falciparum [1]; in series [3]; in the series on Hemozoin [4]) were 0.068 µM, 5.65 µM and 26.3 µM, respectively. Moreover, the selectivity ratio in series [2] was determined as 82.2.
For the compound `COc1ccc2[nH]c3c4ccc(Cl)cc4ncc3c2c1`, in the series on Plasmodium falciparum [22], the half-maximal inhibitory concentration (IC50) is 0.002 µM.
For the compound `Cn1c2nc3ccccc3c-2c(NCC(C)(C)CNC(=O)Nc2ccccc2)c2cc(Cl)ccc21`, the IC50 stood at 0.019 µM in the series with Plasmodium falciparum [1], 1.18 µM in series [3] and 10.1 µM in the series on Hemozoin [4].
